Laboratory results published in PubChem BioAssay (NCI).
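Where inhibition never reached the appropriate level, the endpoint shown equals the highest concentration tested. Otherwise, values were interpolated linearly from a five-concentration, 48-hour dose response in 96-well plates. Abbreviation: GI50, concentration required for 50% inhibition of growth. At the TGI there is no net growth.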

Tests used:
Experiment in all cases: NCI-60 cell line screen, 48 h
SK-OV-3 ovarian = test system: SK-OV-3 ovarian
UO-31 renal = test system: UO-31 renal
TK-10 renal = test system: TK-10 renal
KM20L2 colon = test system: KM20L2 colon
U251 CNS = test system: U251 CNS
786-0 renal = test system: 786-0 renal
M19-MEL melanoma = test system: M19-MEL melanoma
RPMI-8226 leukemia = test system: RPMI-8226 leukemia
SNB-78 CNS = test system: SNB-78 CNS
NCI-H460 lung = test system: NCI-H460 lung
DLD-1 colon = test system: DLD-1 colon
CCRF-CEM leukemia = test system: CCRF-CEM leukemia
HCT-116 colon = test system: HCT-116 colon
LOX IMVI melanoma = test system: LOX IMVI melanoma
KM12 colon = test system: KM12 colon
SNB-75 CNS = test system: SNB-75 CNS
IGROV1 ovarian = test system: IGROV1 ovarian
SW-620 colon = test system: SW-620 colon
HOP-92 NSCLC = test system: HOP-92 NSCLC
K-562 leukemia = test system: K-562 leukemia
NCI-H226 lung = test system: NCI-H226 lung
XF 498 CNS = test system: XF 498 CNS
SF-295 CNS = test system: SF-295 CNS
EKVX NSCLC = test system: EKVX NSCLC
SR leukemia = test system: SR leukemia
UACC-257 melanoma = test system: UACC-257 melanoma

C[CH2][Sn]([Cl])([CH2]C)[CH2]C
GI50 (SK-OV-3 ovarian): 1.47 µM | TGI (SK-OV-3 ovarian): 5.8 µM | GI50 (UO-31 renal): 1.65 µM | TGI (UO-31 renal): 4.05 µM | GI50 (TK-10 renal): 3.02 µM | TGI (TK-10 renal): 6.94 µM | GI50 (KM20L2 colon): 0.524 µM | TGI (KM20L2 colon): 2.99 µM | GI50 (U251 CNS): 0.771 µM | TGI (U251 CNS): 2.97 µM | GI50 (786-0 renal): 1.01 µM | TGI (786-0 renal): 3.63 µM | GI50 (M19-MEL melanoma): 2.06 µM | TGI (M19-MEL melanoma): 11.4 µM | GI50 (RPMI-8226 leukemia): 0.399 µM | TGI (RPMI-8226 leukemia): 9.17 µM | GI50 (SNB-78 CNS): 0.922 µM | TGI (SNB-78 CNS): 5.04 µM | GI50 (NCI-H460 lung): 1.67 µM | TGI (NCI-H460 lung): 5.44 µM | GI50 (DLD-1 colon): 0.973 µM | TGI (DLD-1 colon): 15.8 µM | GI50 (CCRF-CEM leukemia): 0.368 µM | TGI (CCRF-CEM leukemia): 3.12 µM | GI50 (HCT-116 colon): 1.33 µM | TGI (HCT-116 colon): 10.4 µM | GI50 (LOX IMVI melanoma): 0.386 µM | TGI (LOX IMVI melanoma): 2.06 µM | GI50 (KM12 colon): 1.08 µM | TGI (KM12 colon): 12.8 µM | GI50 (SNB-75 CNS): 0.255 µM | TGI (SNB-75 CNS): 0.549 µM | GI50 (IGROV1 ovarian): 0.646 µM | TGI (IGROV1 ovarian): 5.22 µM | GI50 (SW-620 colon): 0.57 µM | TGI (SW-620 colon): 10.9 µM | GI50 (HOP-92 NSCLC): 0.186 µM | TGI (HOP-92 NSCLC): 0.689 µM | GI50 (K-562 leukemia): 0.718 µM | TGI (K-562 leukemia): 5 µM | GI50 (NCI-H226 lung): 2.48 µM | TGI (NCI-H226 lung): 5.36 µM | GI50 (XF 498 CNS): 0.867 µM | TGI (XF 498 CNS): 3.26 µM | GI50 (SF-295 CNS): 1.41 µM | TGI (SF-295 CNS): 3.92 µM | GI50 (EKVX NSCLC): 1.06 µM | TGI (EKVX NSCLC): 11.6 µM | GI50 (SR leukemia): 0.481 µM | TGI (SR leukemia): 5.01 µM | GI50 (UACC-257 melanoma): 1 µM | TGI (UACC-257 melanoma): 4.43 µM
